Common to all, as to assay type: biochemical
Experiment [1] deals with T1, VIM-2 (Escherichia coli, UniProt Q5U7L7).
T1 construct: made in house; host or cells: E. coli BL21(DE3)
Put plainly: β-lactamase enzyme inhibition, VIM-2. The note with it: substrate Nitrocefin 100 μM, 486 nm; read-out: Class B VIM-2 IC50. An outline of the steps:
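Purified VIM-2 (Q sepharose, 50 mM Hepes pH 7.5, >90% purity) preincubated with inhibitor 15 min at 37° C, then nitrocefin added at 100 μM final. Hydrolysis followed at 486 nm for 10 min; IC50 from initial rates versus inhibitor-free control wells.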

Experiment [2] addresses T2, p99 AmpC (Enterobacter cloacae, UniProt P05364).
T2 construct: made in house; host or cells: E. coli BL21(DE3)
As to the kind of experiment: β-lactamase enzyme inhibition, p99 AmpC. The procedure, abridged:
(§1)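 Native untagged β-lactamases expressed in E. coli BL21(DE3) and purified, then pre-incubated with inhibitor 15 min at 37 °C. Hydrolysis was followed by absorbance: 100 μM nitrocefin at 486 nm for p99 AmpC and OXA-1; imipenem at 300 nm for KPC-2; cefotaxime at 260 nm for SHV-5. IC50 from initial-rate inhibition versus uninhibited controls.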

In experiment [3] the target is T3, KPC-2 (Klebsiella pneumoniae, UniProt Q9F663).
T3 construct: made in house; host or cells: E. coli BL21(DE3)
Put plainly: β-lactamase enzyme inhibition, KPC-2. The note with it: substrate imipenem, 300 nm; read-out: Class A KPC-2 IC50. The procedure, abridged: as §1

The target of experiment [4] is T4, OXA-1 (Escherichia coli, UniProt P13661).
T4 construct: made in house; host or cells: E. coli BL21(DE3)
Put plainly: β-lactamase enzyme inhibition, OXA-1. The note with it: substrate Nitrocefin 100 μM, 486 nm; read-out: Class D OXA-1 IC50. The procedure, abridged: as §1

The target of experiment [5] is T5, SHV-5 (Klebsiella pneumoniae, UniProt P0A3M1).
T5 construct: made in house; host or cells: E. coli BL21(DE3)
As to the kind of experiment: β-lactamase enzyme inhibition, SHV-5. The procedure, abridged:
as §1

The text below walks through data of patent US8912169B2, “Beta-lactamase inhibitors” (VenatoRx Pharmaceuticals, Inc., priority 2012, dated 2014).

pIC50: −log10 of the molar value.

Turning to `CS(=O)(=O)NCCN[C@H]1CC[C@H](CC(=O)N[C@H]2Cc3cccc(C(=O)O)c3OB2O)CC1` [Example 49, (R)-2-hydroxy-3-(2-(trans-4-(2-(methylsulfonamido)ethylamino)cyclohexyl)acetamido)-3,4-dihydro-2H-benzo[e][1,2]oxaborinine-8-carboxylic acid], the pIC50 in experiment [1] is 6.00 to 7.00; in experiment [2], greater than 7.00; in experiment [3], greater than 7.00; in experiment [4] it was greater than 7.00; in experiment [5], greater than 7.00.

With `NCCN[C@H]1CC[C@H](CC(=O)N[C@@H]2Cc3cccc(C(=O)O)c3OB2O)CC1` [Example 50, (S)-3-(2-(trans-4-(2-aminoethylamino)cyclohexyl)acetamido)-2-hydroxy-3,4-dihydro-2H-benzo[e][1,2]oxaborinine-8-carboxylic acid], the negative logarithm of the IC50 (pIC50) in experiment [1], in experiment [2], in experiment [3], in experiment [4] and in experiment [5] was 6.00 to 7.00 throughout.

Regarding `CNCCN[C@H]1CC[C@H](CC(=O)N[C@H]2Cc3cccc(C(=O)O)c3OB2O)CC1` [Example 51, (R)-2-hydroxy-3-(2-(trans-4-(2-(methylamino)ethylamino)cyclohexyl)acetamido)-3,4-dihydro-2H-benzo[e][1,2]oxaborinine-8-carboxylic acid], the pIC50 in experiment [1], in experiment [2], in experiment [3], in experiment [4] and in experiment [5] was greater than 7.00 each time.

On to `CN1CCN([C@H]2CC[C@H](CC(=O)N[C@H]3Cc4cccc(C(=O)O)c4OB3O)CC2)C1=N` [Example 52, (R)-2-hydroxy-3-(2-(trans-4-(2-imino-3-methylimidazolidin-1-yl)cyclohexyl)acetamido)-3,4-dihydro-2H-benzo[e][1,2]oxaborinine-8-carboxylic acid], for which the pIC50 is 4.00 to 5.00 in experiment [1]; greater than 7.00 in experiment [2]; greater than 7.00 in experiment [3]; greater than 7.00 in experiment [4]; greater than 7.00 in experiment [5].

For the molecule `C[C@H](N)CN[C@H]1CC[C@H](CC(=O)N[C@H]2Cc3cccc(C(=O)O)c3OB2O)CC1` [Example 53, (R)-3-(2-(trans-4-((S)-2-aminopropylamino)cyclohexyl)acetamido)-2-hydroxy-3,4-dihydro-2H-benzo[e][1,2]oxaborinine-8-carboxylic acid], the pIC50 in experiment [1], in experiment [2], in experiment [3], in experiment [4] and in experiment [5] was greater than 7.00 throughout.

For the molecule `COC(=O)NCCN[C@H]1CC[C@H](CC(=O)N[C@H]2Cc3cccc(C(=O)O)c3OB2O)CC1` [Example 54, (R)-2-hydroxy-3-(2-(trans-4-(2-(methoxycarbonylamino)ethylamino)cyclohexyl)acetamido)-3,4-dihydro-2H-benzo[e][1,2]oxaborinine-8-carboxylic acid], the pIC50 is 6.00 to 7.00 in experiment [1]; 6.00 to 7.00 in experiment [2]; greater than 7.00 in experiment [3]; greater than 7.00 in experiment [4]; greater than 7.00 in experiment [5].

For `NCCNC1CC(CC(=O)N[C@H]2Cc3cccc(C(=O)O)c3OB2O)C1` (stereo partly drawn) [Example 55, (R)-3-(2-(3-(2-aminoethylamino)cyclobutyl)acetamido)-2-hydroxy-3,4-dihydro-2H-benzo[e][1,2]oxaborinine-8-carboxylic acid], the pIC50 in experiment [1], in experiment [2], in experiment [3], in experiment [4] and in experiment [5] was greater than 7.00 throughout.

As for `NC1CC(CC(=O)N[C@H]2Cc3cccc(C(=O)O)c3OB2O)C1` (stereo partly drawn) [Example 56, (R)-3-(2-(3-aminocyclobutyl)acetamido)-2-hydroxy-3,4-dihydro-2H-benzo[e][1,2]oxaborinine-8-carboxylic acid], the pIC50 was 6.00 to 7.00 in experiment [1]; greater than 7.00 in experiment [2]; greater than 7.00 in experiment [3]; greater than 7.00 in experiment [4]; 6.00 to 7.00 in experiment [5].

Regarding `NCCNC(=O)NCCN(C(=O)NCCN)C1CC(CC(=O)N[C@H]2Cc3cccc(C(=O)O)c3OB2O)C1` (stereo partly drawn) [Example 57, (R)-3-(2-(3-(3-(2-aminoethyl)-1-(2-(3-(2-aminoethyl)ureido)ethyl)ureido)cyclobutyl)acetamido)-2-hydroxy-3,4-dihydro-2H-benzo[e][1,2]oxaborinine-8-carboxylic acid], the pIC50 in experiment [1] is 6.00 to 7.00; in experiment [2] it was greater than 7.00; in experiment [3] it was greater than 7.00; in experiment [4], greater than 7.00; in experiment [5] it was greater than 7.00.

Consider `NCCNC(=O)NC1CC(CC(=O)N[C@H]2Cc3cccc(C(=O)O)c3OB2O)C1` (stereo partly drawn) [Example 58, (R)-3-(2-(3-(3-(2-aminoethyl)ureido)cyclobutyl)acetamido)-2-hydroxy-3,4-dihydro-2H-benzo[e][1,2]oxaborinine-8-carboxylic acid], for which the pIC50 in experiment [1] is 6.00 to 7.00; in experiment [2] it was greater than 7.00; in experiment [3] it was greater than 7.00; in experiment [4] it was greater than 7.00; in experiment [5], greater than 7.00.

For `NCCNC(=O)N[C@H]1CC[C@H](CC(=O)N[C@H]2Cc3cccc(C(=O)O)c3OB2O)CC1` [Example 59, (R)-3-(2-(trans-4-(3-(2-aminoethyl)ureido)cyclohexyl)acetamido)-2-hydroxy-3,4-dihydro-2H-benzo[e][1,2]oxaborinine-8-carboxylic acid], the pIC50 is 6.00 to 7.00 in experiment [1]; greater than 7.00 in experiment [2]; greater than 7.00 in experiment [3]; greater than 7.00 in experiment [4]; greater than 7.00 in experiment [5].

Regarding `NCCCN[C@H]1CC[C@H](CC(=O)N[C@H]2Cc3cccc(C(=O)O)c3OB2O)CC1` [Example 60, (R)-3-(2-(trans-4-(3-aminopropylamino)cyclohexyl)acetamido)-2-hydroxy-3,4-dihydro-2H-benzo[e][1,2]oxaborinine-8-carboxylic acid], the pIC50 in experiment [1], in experiment [2], in experiment [3], in experiment [4] and in experiment [5] was greater than 7.00 each time.

For `O=C(C[C@H]1CC[C@H](NCCNCCO)CC1)N[C@H]1Cc2cccc(C(=O)O)c2OB1O` [Example 61, (R)-2-hydroxy-3-(2-(trans-4-(2-(2-hydroxyethylamino)ethylamino)cyclohexyl)acetamido)-3,4-dihydro-2H-benzo[e][1,2]oxaborinine-8-carboxylic acid], the pIC50 in experiment [1], in experiment [2], in experiment [3], in experiment [4] and in experiment [5] was greater than 7.00 each time.

`C[C@H](N)CNCCN[C@H]1CC[C@H](CC(=O)N[C@H]2Cc3cccc(C(=O)O)c3OB2O)CC1` [Example 62, (R)-3-(2-(trans-4-(2-((S)-2-aminopropylamino)ethylamino)cyclohexyl)acetamido)-2-hydroxy-3,4-dihydro-2H-benzo[e][1,2]oxaborinine-8-carboxylic acid]: the pIC50 in experiment [1], in experiment [2], in experiment [3], in experiment [4] and in experiment [5] was greater than 7.00 each time.

As to `CN(CCN)[C@H]1CC[C@H](CC(=O)N[C@H]2Cc3cccc(C(=O)O)c3OB2O)CC1` [Example 63, (R)-3-(2-(trans-4-((2-aminoethyl)(methyl)amino)cyclohexyl)acetamido)-2-hydroxy-3,4-dihydro-2H-benzo[e][1,2]oxaborinine-8-carboxylic acid], the pIC50 in experiment [1], in experiment [2], in experiment [3], in experiment [4] and in experiment [5] was greater than 7.00 throughout.

Regarding `CNCCN[C@H]1CC[C@H](C(CO)C(=O)N[C@H]2Cc3cccc(C(=O)O)c3OB2O)CC1` (stereo partly drawn) [Example 64, (R)-2-hydroxy-3-(3-hydroxy-2-(trans-4-(2-(methylamino)ethylamino)cyclohexyl)propanamido)-3,4-dihydro-2H-benzo[e][1,2]oxaborinine-8-carboxylic acid], the pIC50 is greater than 7.00 in experiment [1]; greater than 7.00 in experiment [2]; 6.00 to 7.00 in experiment [3]; greater than 7.00 in experiment [4]; greater than 7.00 in experiment [5].

In the case of `N[C@@H](CO)CN[C@H]1CC[C@H](CC(=O)N[C@H]2Cc3cccc(C(=O)O)c3OB2O)CC1` [Example 65, (R)-3-(2-(trans-4-((R)-2-amino-3-hydroxypropylamino)cyclohexyl)acetamido)-2-hydroxy-3,4-dihydro-2H-benzo[e][1,2]oxaborinine-8-carboxylic acid], the pIC50 in experiment [1], in experiment [2], in experiment [3], in experiment [4] and in experiment [5] was greater than 7.00 in each case.

As for `CSCCN[C@H]1CC[C@H](CC(=O)N[C@H]2Cc3cccc(C(=O)O)c3OB2O)CC1` [Example 66, (R)-2-hydroxy-3-(2-(trans-4-(2-(methylthio)ethylamino)cyclohexyl)acetamido)-3,4-dihydro-2H-benzo[e][1,2]oxaborinine-8-carboxylic acid], the pIC50 in experiment [1] was 5.00 to 6.00; in experiment [2], greater than 7.00; in experiment [3] it was greater than 7.00; in experiment [4] it was greater than 7.00; in experiment [5] it was greater than 7.00.
